According to patent US12492173B2, “Herbicidal substituted N-tetrazolyl aryl carboxamides” (Bayer Aktiengesellschaft, priority 2019, dated 2025):

Experiments:
Assay type in all cases: in vivo
[1] = test system: Matricaria inodora; assay: Pre-emergence herbicidal action, MATIN; conditions: dosage 320 g/ha; for herbicidal activity MATIN: scored visually after 3 weeks vs untreated controls (100% = plants have died)
Summary of the method: (§1)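 Seeds sown in sandy loam in pots and covered with soil; compounds formulated as WP or EC were sprayed onto the soil surface as aqueous suspension/emulsion at 600 to 800 l/ha water with 0.2% wetting agent. Greenhouse growth; visual damage scored after 3 weeks versus untreated controls (100% = plants died, 0% = like control).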

[2] = test system: Stellaria media; assay: Pre-emergence herbicidal action, STEME; parameters: key to Herbicidal action against STEME: % activity: 100 = plants have died, 0 = like control plants; conditions: for herbicidal activity STEME: scored visually after 3 weeks vs untreated controls (100% = plants have died)
Summary of the method: as §1

[3] = test system: Viola tricolor; assay: Pre-emergence herbicidal action, VIOTR; parameters: key to Herbicidal action against VIOTR: % activity: 100 = plants have died, 0 = like control plants; conditions: for herbicidal activity VIOTR: scored visually after 3 weeks vs untreated controls (100% = plants have died)
Summary of the method: as §1

[4] = test system: Matricaria inodora; assay: Post-emergence herbicidal action, MATIN; parameters: key: % herbicidal action vs untreated; 100 = plants died, 0 = like control
Summary of the method: (§2)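 After sowing into sandy loam, plants grew 2 to 3 weeks under greenhouse conditions until one leaf, then got a spray of compound as aqueous suspension or emulsion. Roughly three weeks on, activity was estimated visually against untreated pots.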

[5] = test system: Stellaria media; assay: Post-emergence herbicidal action, STEME; parameters: key: % herbicidal action vs untreated; 100 = plants died, 0 = like control
Summary of the method: as §2

[6] = test system: Veronica persica; assay: Post-emergence herbicidal action, VERPE; parameters: key: % herbicidal action vs untreated; 100 = plants died, 0 = like control
Summary of the method: as §2

[7] = comparative experiment, 20 g of a.i./ha

SMILES | herbicidal activity MATIN [1] [%] | herbicidal activity STEME ([2]; dosage 320 g/ha) [%] | herbicidal activity VIOTR ([3]; dosage 320 g/ha) [%] | herbicidal action MATIN ([4]; Dosage 80 g/ha) | herbicidal action STEME ([5]; Dosage 80 g/ha) | herbicidal action VERPE ([6]; Dosage 80 g/ha) | herbicidal action MATIN ([4]; post-emergence, dosage 80 g/ha) [%] | herbicidal action STEME ([5]; post-emergence, dosage 80 g/ha) [%] | herbicidal action VERPE ([6]; post-emergence, dosage 80 g/ha) [%] | Herbicidal action against STEME [2, 7] | Herbicidal action against VIOTR [3, 7] | herbicidal action MATIN [1] [%] | herbicidal action STEME ([2]; dosage 320 g/ha) [%] | herbicidal action VIOTR ([3]; dosage 320 g/ha) [%]
CCS(=O)(=O)Cc1c(C(F)(F)F)ccc(C(=O)Nc2nnnn2C)c1Cl [Example 1-301] | 100 | 90 | 100 | 90 | 100 | 100 |  |  |  |  |  |  |  | 
C=CCSCc1c(C(F)(F)F)ccc(C(=O)Nc2nnnn2C)c1Cl [Example 1-308] | 100 | 100 | 100 |  |  |  | 100 | 100 | 80 |  |  |  |  | 
CSCc1c(C(F)(F)F)ccc(C(=O)Nc2nnnn2C)c1Br [Example 1-380] | 100 | 90 | 100 |  |  |  | 90 | 100 | 100 |  |  |  |  | 
Cn1nnnc1NC(=O)c1ccc(C(F)(F)F)c(C[S+](C)[O-])c1Br (centres unmarked) [Example 1-381] | 100 | 90 | 100 |  |  |  | 90 | 100 | 100 | 90 | 90 |  |  | 
Cn1nnnc1NC(=O)c1ccc(C(F)(F)F)c(CS(C)(=O)=O)c1Br [Example 1-382, 2-bromo-3-[(methylsulfonyl)methyl]-N-(1-methyl-1H-tetrazol-5-yl)-4-(trifluoromethyl)benzamide] | 100 | 90 | 100 | 100 | 100 | 100 |  |  |  |  |  |  |  | 
Cn1nnnc1NC(=O)c1ccc(Cl)c(CS(C)(=O)=O)c1Cl [Example 1-561] | 90 | 90 | 100 | 100 | 100 | 100 |  |  |  |  |  |  |  | 
CCn1nnnc1NC(=O)c1ccc(S(C)(=O)=O)c(CS(C)(=O)=O)c1C [Example 2-39] |  |  |  | 80 | 100 | 100 |  |  |  |  |  | 100 | 100 | 100
CCn1nnnc1NC(=O)c1ccc(C(F)F)c(CSC)c1C [Example 2-107] | 100 | 90 | 100 | 90 | 100 | 100 |  |  |  |  |  |  |  | 
CCn1nnnc1NC(=O)c1ccc(C(F)(F)F)c(C[S+](C)[O-])c1OC (centres unmarked) [Example 2-135] | 100 | 90 | 100 | 100 | 100 | 100 |  |  |  |  |  |  |  | 
CCn1nnnc1NC(=O)c1ccc(C(F)(F)F)c(CS(C)(=O)=O)c1OC [Example 2-136] | 100 | 100 | 100 | 100 | 100 | 100 |  |  |  |  |  |  |  | 
CCn1nnnc1NC(=O)c1ccc(C(F)(F)F)c(CSC)c1SC [Example 2-161] | 100 | 100 | 100 |  |  |  | 100 | 100 | 100 |  |  |  |  | 
CCn1nnnc1NC(=O)c1ccc(C(F)(F)F)c(CS(C)(=O)=O)c1SC [Example 2-163] | 100 | 90 | 100 | 100 | 100 | 100 |  |  |  |  |  |  |  | 
CCn1nnnc1NC(=O)c1ccc(C)c(CSC)c1Cl [Example 2-287] | 100 | 80 | 90 | 100 | 100 | 80 |  |  |  |  |  |  |  | 
CCn1nnnc1NC(=O)c1ccc(C(F)(F)F)c(CSC)c1Br [Example 2-380] | 100 | 80 | 100 |  |  |  | 100 | 100 | 100 |  |  |  |  | 
CCn1nnnc1NC(=O)c1ccc(C(F)(F)F)c(C[S+](C)[O-])c1Br (centres unmarked) [Example 2-381] | 100 | 90 | 100 |  |  |  | 90 | 100 | 100 |  |  |  |  | 
CCn1nnnc1NC(=O)c1ccc(C(F)(F)F)c(CS(C)(=O)=O)c1Br [Example 2-382] | 100 | 90 | 100 | 100 | 100 | 100 |  |  |  |  |  |  |  | 
CCSCc1c(C(F)(F)F)ccc(C(=O)Nc2nnnn2CC)c1Br [Example 2-383] | 100 | 100 | 100 |  |  |  | 100 | 90 | 100 |  |  |  |  | 
CCCn1nnnc1NC(=O)c1ccc(C(F)(F)F)c(CS(=O)(=O)CC)c1C [Example 3-88] | 100 | 80 | 100 | 90 | 100 | 90 |  |  |  |  |  |  |  | 
